Patent US6020374A, “Biologically active synthetic dye compounds” (priority 1998, dated 2000)

What was measured:
[1] = test system: 185 kDa protein(s) (p185); test: Tyrosine phosphorylation of p185 in MCF-7 cells (anti-phosphotyrosine immunoblot); format: cell-based
Experimental: FIG. 1 is the effect of ATA and EB on tyrosine phosphorylation: MCF-7 cells, grown in 35 mm dishes were solubilized in Buffer A (a) or Buffer B (b-c). The solubilized cells were subjected to 7.5% SDS-PAGE and immunoblotted with an anti-phosphotyrosine antibody. (a) Cells treated for 5 mins. with ATA, EB, each at 300 μg/ml, IGF-1 at 20 ng/ml, or without additives (CON); (b) Cells treated with 300 μg/ml ATA for the indicated times; (c) Cells treated with 30 μg/ml EB for the indicated times; (d) Cells treated for 5 mins. with the indicated concentrations of ATA; (e) Cells treated for 5 mins. with the indicated concentrations of EB. Molecular mass markers (in kDa) are indicated on the right.
FIG. 2 is the effect of ATA and vanadate on the IGF-1 stimulated tyrosine phosphorylation of p185: A--Cells treated for 5 mins. with the indicated concentrations of IGF-1 in the presence or absence of 300 μg/ml ATA; B--Cells pre-incubated for 3 hours with or without 50 μM vanadate were incubated for 5 mins. with ATA, EB each at 300 μg/ml or with 10 ng/ml IGF-1 in the presence or absence of vanadate. Cytosols extracted in Buffer B were analyzed by immunoblotting with anti-phosphotyrosine antibody as in FIG. 1.
FIG. 8 is the effect of fractionated ATA on p185 phosphorylation: A--Crude ATA was separated on a Bio-Rad P-4 column and the combined void volume was then gel filtrated on a column of Bio-Rad P-10. The column was calibrated with the following molecular weight markers: DB-Dextran blue; CC-cytochrome C: Ins-insulin; B12-Vitamin B12. B--MCF-7 cells were incubated for 5 mins. with the indicated fractions of ATA (eluted from the P-10 column shown in A), crude ATA, each at 200 μg/ml or IGF-1 at 20 ng/ml. Cytosols, solubilized in Buffer B were subjected to 7.5% SDS-PAGE and immunoblotted with phosphotyrosine antibody.
(§1) MCF-7 cells were grown in 35 or 100 mm dishes in DMEM with 5% bovine fetal serum. Rat hepato FaO cells were grown in RPMI 1640 medium supplemented with 10% fetal calf serum. Subconfluent monolayers of MCF-7 cells or FaO cells, were deprived of serum for 20 hours prior to each experiment. The medium was removed, and cells were incubated at 37° C. under the conditions as indicated for each experiment. The reaction was terminated by removing the medium and freezing the monolayers with liquid nitrogen. In some experiments, cells were preincubated with 50 μM sodium orthovanadate for 3 hours.
Cells were solubilized at 4° C. with 0.2 ml/35 mm dish or 2 ml/100 mm dish of the indicated buffer. The solubilized cells were scraped and sedimented by centrifugation at 12,000×g for 30 mins. at 4° C. Aliquots of the supernatants were normalized for protein, mixed with concentrated (5×) Laemmli sample buffer, boiled for 10 mins. and resolved on 7.5 or 12% SDS-PAGE under reducing conditions.
(§2) Nitrocellulose blots of proteins were incubated with the antibodies, and proteins were detected by enhanced chemiluminescence using horseradish peroxidase-labeled protein A, horseradish peroxidase-labeled anti rabbit IgG or horseradish peroxidase-labeled anti-mouse IgG.

[2] = biological target: T1, IR (Rattus norvegicus, UniProt P15127); test: Tyrosine phosphorylation of IR in FaO cells; format: cell-based; settings: 3 hour preincubation with vanadate, 5 min. incubations with EB and insulin
T1 construct: determined in the rat hepatoma cell line FaO; endogenous in cells; host or cells: FaO (rat hepatoma)
Experimental: (§3) FIG. 9 is the tyrosine phosphorylation of the IR cascade in Fao cells: A--Immunoblot analysis: Fao cells were deprived of serum for 20 hours, then incubated with EB, ATA, at 200 μg/ml or insulin at 600 ng/ml for 5 mins. Cell extracts were subjected to immunoprecipitation with antibodies to: IR β-subunit (αIR), IRS-1 (αIRS-1) and to IRS-2 (αIRS-2). The immunoprecipitates and total cell extracts were analyzed by SDS-PAGE. Proteins were transferred to nitrocellulose papers, and phosphotyrosine containing proteins were probed with anti-phosphotyrosine antibodies (αP-Tyr), antibody to the 85-kDa subunit of PI3-kinase (αp85) and antibodies to active MAPK (α active MAPK). The immunoblots were visualized by ECL (Amersham).
B--Kinetics of IR phosphorylation: Cells were treated either with 200 μg/ml EB for the indicated times (top panel) or with the indicated concentrations of EB for 5 mins. (middle panel). A 3 hour preincubation with vanadate preceded the 5 min. incubations with EB and insulin (bottom panel).
as §1
(§4) Cells were solubilized in Buffer A or C. Extracts were immunoprecipitated at 4° C. with antibodies to IRS-1, IRS-2, IGF-1 or IR receptor or Grb2, adsorbed on protein A-Sepharose beads. The immunocomplexes were pelleted by centrifugation at 12,000×g and washed twice with Buffer A, and twice with Buffer A containing 0.1% Triton x-100. The pellets were then suspended in Laemmli sample buffer and resolved on 7.5% SDS-PAGE.
as §2
The ability of EB and ATA to phosphorylate the IR was determined in the rat hepatoma cell line FaO. […] Phosphorylation is maximal after a 1 min. exposure to 70 μg/ml of EB (FIG. 9B, top and middle panels).

[3] = test system: IRS-1; test: IRS-1 tyrosine phosphorylation and association with p85/Grb2 in MCF-7 cells; format: cell-based; settings: 5 mins., ATA or EB 300 μg/ml, IGF-1 20 ng/ml
Experimental: FIG. 3 is the effect of ATA and EB on tyrosine phosphorylation or IRS-1: MCF-7 cells grown in 100 mm dishes, were treated with ATA or EB, each at 300 μg/ml, or 20 ng/ml IGF-1 for 5 mins. Total cell extracts, solubilized in Buffer A, were subjected to immunoprecipitation with antibodies to IRS-1 (a) or Grb2 (b). The immunocomplexes, precipitated with protein G-Sepharose beads, were subjected to 7.5% SDS-PAGE followed by immunoblotting with a phosphotyrosine antibody, an antibody to the 85-kDa subunit of PI3-kinase or antibody to IRS-1.
as §4, §2
(§5) MCF-7 cells were stimulated with ATA, EB or IGF-1, solubilized and immunoprecipitated with anti IRS-1 or IRS-2 antibodies, separated by SDS-PAGE and immunoblotted with anti-phosphotyrosine antibody. […] The association of IRS-1 with Grb-2 was evaluated in lysates from treated cells which were immunoblotted with antibodies to either phosphotyrosine or IRS-1.

[4] = test system: MAPK-1 (44 kDa) and MAPK-2 (42 kDa); test: Activation of MAPKs in MCF-7 cells (anti-active MAPK immunoblot); format: cell-based; settings: 5 mins., ATA, EB each at 300 μg/ml, IGF-1 20 or 40 ng/ml
Experimental: FIG. 7 is the effect of ATA and EB on activation of MAPKs: MCF-7 cells were treated for 5 mins. with ATA, EB, each at 300 μg/ml, 20 ng/ml or 40 ng/ml IGF-1. Cell lysates, solubilized in Buffer C, were subjected to 12% SDS-PAGE and immunoblotted with an anti-active MAPK antibody. The membrane, after ECL detection, was stripped of bound antibody and blotted with an anti-MAPK antibody.
as §2
The activated forms of MAPKs were detected by anti-active MAPK immunoblotting in the MCF-7 cell's lysates. […] Blotting with anti MAPKs antibodies confirms that similar amounts of MAPKs were present in treated and non-treated cells.

[5] = test system: MCF-7 cells; test: Cell death estimation, cycloheximide-exposed MCF-7 cells (trypan blue); format: cell-based; settings: 30 μg CX, 48 hours, IGF-1 20 μg/ml
Experimental: Subconfluent cultures of MCF-7 cells in 35 mm dishes, were deprived of serum for 20 hours and then exposed to 30 μg/ml cycloheximide in the presence or absence of increasing concentrations of fractionated ATA, crude ATA or EB. After 48 hours, the cells were detached with trypsin. The medium and the detached cells were pooled and centrifuged at 1000×g for 10 mins. Cell viability was estimated by adding an equivalent volume of trypan blue solution to an aliquot of suspended cells. Stained and unstained cells were counted on a hemocytometer (10^3 cells were counted for each determination).
Subconfluent, 20 hours starved MCF-7 cells were exposed to 30 μg/ml
of cycloheximide in the presence of increasing
concentrations of fractionated ATA (0, 6, 12, 25, 50 μg/ml). After
48 hours, percent of dead cells was
determined as described under "Experimental procedures". In the
presence of cycloheximide only, 60-70% of
the cells were dead after 48 hours.
Cultures of […] cells were exposed to 30 μg CX for 48 hours in the presence of EB, ATA, IGF-1, or nothing.

[6] = test system: IRS-2; test: IRS-2 association with p85 of PI3-kinase in MCF-7 cells; format: cell-based; settings: 5 mins., ATA or EB 300 μg/ml, IGF-1 20 ng/ml
Experimental: FIG. 4 is the effect of ATA and EB on tyrosine phosphorylation of IRS-2: MCF-7 cells were treated as in FIG. 3. Total cell extracts, solubilized in Buffer C, were immunoprecipitated with an antibody to IRS-2. The immunocomplexes, precipitated with protein A-Sepharose beads were subjected to 7.5% SDS-PAGE, followed by immunoblotting with a phosphotyrosine antibody and an antibody to the 85-kDA subunit of PI3-kinase.
as §4, §2, §5

[7] = test system: 3T3 L1 adipocytes; test: Glycogen synthesis in 3T3 L1 adipocytes; format: cell-based; settings: 20 mins., EB, ATA 200 μg/ml, insulin 600 ng/ml
Experimental: (§6) FIG. 11 is the metabolic effects in 3T3 L1 adipocytes: Fully differentiated 3T3 L1 adipocytes were incubated with EB, ATA or fuchsin (FUCH) each at 200 μg/ml, or with 600 ng/ml of insulin for 20 mins. (A, B, C) or 5 mins. (D). CON indicates no additive.
B--Glycogen synthesis. Cells were incubated with (^14 C)-glucose for 10 mins. Radioactivity was determined in the precipitated glycogen fraction.

[8] = test system: MAPKs 1 and 2; test: Activation of MAPKs in FaO cells; format: cell-based, rat; settings: 5 mins., EB 200 μg/ml, insulin 600 ng/ml
Experimental: as §3, §2
In the rat hepatoma cell line FaO, EB and insulin, enhanced IRS-1 and IRS-2 tyrosine phosphorylation and their association with the 85-kDa regulatory subunit of the PI-kinase (FIG. 9A). PI3-kinase activity increases following its association with IRS-1 and IRS-2 (FIG. 9C). MAPKs 1 and 2 were activated by EB and insulin (FIG. 9A).

[9] = test system: IRS-1; test: IRS-1 tyrosine phosphorylation and association with p85 in FaO cells; format: cell-based, rat; settings: 5 mins., EB 200 μg/ml, insulin 600 ng/ml
Experimental: as §3
as §1, with “The reaction was terminated by removing the medium and freezing the monolayers with liquid nitrogen. In some experiments, cells were preincubated with 50 μM sodium orthovanadate for 3 hours.” left out
(§7) Nitrocellulose blots of proteins were incubated with the antibodies, and proteins were detected by enhanced chemiluminescence using horseradish peroxidase-labeled protein A, horseradish peroxidase-labeled anti rabbit IgG or horseradish peroxidase-labeled anti-mouse IgG. […]

[10] = test system: IRS-2; test: IRS-2 tyrosine phosphorylation and association with p85 in FaO cells; format: cell-based, rat; settings: 5 mins., EB 200 μg/ml, insulin 600 ng/ml
Experimental: as §3
as §1, with “The reaction was terminated by removing the medium and freezing the monolayers with liquid nitrogen. In some experiments, cells were preincubated with 50 μM sodium orthovanadate for 3 hours.” left out
as §7

[11] = test system: IR, IRS-1 and the 85-kDa regulatory subunit of PI3-kinase; test: In vivo tyrosine phosphorylation of the IR cascade in rat liver; settings: Sprague-Dawley male rats, portal vein injection, EB 20 mg/rat, insulin 1 u/rat
Experimental: A--Immunoblot analysis. Rat liver extracts were subjected to immunoprecipitation and blotting with the indicated antibodies, as described in the legend to FIG. 9A.
(§8) EB (20 mg/rat) or insulin (1 u/rat) was injected into about 120 g weighing Sprague-Dawley male rats, via the portal vein. Control rats were injected with saline (SAL) alone. The rats were killed and the livers excised and frozen in liquid nitrogen at the indicated times.

[12] = test system: 3T3 L1 adipocytes; test: Lipogenesis in 3T3 L1 adipocytes; format: cell-based; settings: 20 mins., EB, ATA 200 μg/ml, insulin 600 ng/ml
Experimental: as §6
C--Lipogenesis. Cells were incubated with 5 mM(U-^14 C) glucose (1 μCi/ml) for 60 mins. Radioactivity was determined in the cellular lipid fraction.

[13] = test system: 3T3 L1 adipocytes; test: 2-deoxyglucose uptake in 3T3 L1 adipocytes; format: cell-based; settings: 20 mins., EB, ATA 200 μg/ml, insulin 600 ng/ml
Experimental: as §6
A--2-deoxyglucose uptake. Hexose uptake was measured for 10 mins. using 50 μM 2-deoxy-(^3 H) glucose (1 μCi/ml). Non-specific uptake was determined in the presence of cytochalasin B (50 μM).

[14] = test system: PI3-kinase; test: In vivo PI3-kinase activity in rat liver; settings: Sprague-Dawley male rats, portal vein, 5 mins. after injection, EB 20 mg/rat, insulin 1 u/rat
Experimental: B--Induction of PI3-kinase. PI3-kinase activity, 5 mins. after injection was assayed as described in FIG. 9C. The results are representative of 2 to 4 independent experiments.
as §8

T1 sequence (P15127 764-1383 limits assumed): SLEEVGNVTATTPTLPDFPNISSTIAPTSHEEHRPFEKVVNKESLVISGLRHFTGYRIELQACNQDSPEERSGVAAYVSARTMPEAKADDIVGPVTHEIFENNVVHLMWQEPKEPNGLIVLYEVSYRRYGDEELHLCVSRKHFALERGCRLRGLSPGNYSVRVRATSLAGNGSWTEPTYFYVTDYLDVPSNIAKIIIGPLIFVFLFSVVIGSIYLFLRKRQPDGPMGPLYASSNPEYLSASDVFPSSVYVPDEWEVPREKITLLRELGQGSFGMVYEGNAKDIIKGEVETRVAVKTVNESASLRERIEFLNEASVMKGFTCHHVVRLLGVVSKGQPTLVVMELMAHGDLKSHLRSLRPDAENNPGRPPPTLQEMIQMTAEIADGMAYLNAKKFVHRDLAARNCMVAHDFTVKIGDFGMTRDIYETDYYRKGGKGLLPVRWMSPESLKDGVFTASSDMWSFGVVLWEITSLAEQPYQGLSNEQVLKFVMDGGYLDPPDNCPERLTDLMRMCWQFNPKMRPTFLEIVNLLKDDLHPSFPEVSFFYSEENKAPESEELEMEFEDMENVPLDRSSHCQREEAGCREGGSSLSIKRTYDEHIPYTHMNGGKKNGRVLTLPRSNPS
T1 sequence (P15127 27-759 limits assumed): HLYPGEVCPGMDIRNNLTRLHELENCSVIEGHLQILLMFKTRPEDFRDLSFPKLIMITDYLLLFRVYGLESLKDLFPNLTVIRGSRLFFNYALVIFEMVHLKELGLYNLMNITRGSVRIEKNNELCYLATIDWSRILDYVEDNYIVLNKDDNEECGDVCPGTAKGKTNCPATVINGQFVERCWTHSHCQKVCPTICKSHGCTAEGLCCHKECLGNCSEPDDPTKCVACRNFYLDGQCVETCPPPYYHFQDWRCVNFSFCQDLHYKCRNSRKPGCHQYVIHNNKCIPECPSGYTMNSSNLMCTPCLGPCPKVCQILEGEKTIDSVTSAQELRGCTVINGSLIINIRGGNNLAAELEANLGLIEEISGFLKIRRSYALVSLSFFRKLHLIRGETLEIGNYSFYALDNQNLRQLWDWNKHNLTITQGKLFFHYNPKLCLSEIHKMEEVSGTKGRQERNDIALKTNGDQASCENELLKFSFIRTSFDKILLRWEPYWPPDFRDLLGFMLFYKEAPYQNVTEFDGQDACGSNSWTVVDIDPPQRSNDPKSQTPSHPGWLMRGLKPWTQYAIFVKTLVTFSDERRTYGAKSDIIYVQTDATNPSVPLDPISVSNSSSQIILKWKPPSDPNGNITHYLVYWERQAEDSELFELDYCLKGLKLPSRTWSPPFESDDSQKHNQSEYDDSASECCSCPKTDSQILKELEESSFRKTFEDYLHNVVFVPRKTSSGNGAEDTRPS

[Na+].[Na+].[Na+].[O]=[V]([O-])([O-])[O-] [Vanadate, sodium orthovanadate, reference compound]
Effect on phosphorylation of p185 induced by IGF-1, ATA and EB ([1]; MCF-7 cells pre-incubated 3 hours with 50 μM vanadate): markedly enhanced | Effect on IR phosphorylation induced by insulin [2]: enhances

IGF-1: Recombinant human IGF-1 from Boehringer Mannheim
Association of IRS-1 with Grb-2 [3]: IRS-1 co-precipitated with Grb2 | Association of p85 subunit of PI3-k with IRS-1 [3]: p85 precipitates with IRS-1 | Phosphorylation of IRS-1 [3]: stimulated the phosphorylation of IRS-1 | Tyrosine phosphorylation of a 185 kDa protein(s) ([1]; MCF-7 cells, 5 mins., ATA, EB each at 300 μg/ml, IGF-1 at 20 ng/ml): enhanced tyrosine phosphorylation of a 185 kDa protein(s) | pp185 (arbitrary units) ([1]; MCF-7 cells, 5 mins., IGF-1 at 20 ng/ml, scanned autoradiogram from FIG. 8B, Control 100): 1,751 arbitrary units | Phosphorylated (active) isoforms MAPK-1 and MAPK-2 [4]: clearly detected | Percent dead cells [5]: 15 ± 4% | Association of p85 subunit of PI3-k with IRS-2 [6]: p85 precipitates

insulin: The hormone insulin
Glycogen synthesis [7]: increase | Activation of MAPKs 1 and 2 [8]: activated | IRS-1 tyrosine phosphorylation and association with the 85-kDa regulatory subunit of PI-kinase [9]: enhanced | IRS-2 tyrosine phosphorylation and association with the 85-kDa regulatory subunit of PI-kinase [10]: enhanced | Tyrosine phosphorylation of IR, IRS-1 and 85-kDa subunit of PI3-kinase in liver [11]: phosphorylated tyrosines of IR, IRS-1 and the 85-kDa of the regulatory subunit of PI3-kinase | Lipogenesis [12]: increase | Glucose uptake [13]: increase glucose uptake | PI3-kinase activity in liver [14]: increased
